US10065990B2, “Cyclic peptide compound, and preparation method, pharmaceutical composition and use thereof” (HANGZHOU GUANYU BIO-MEDICAL CO., LTD, priority 2013, dated 2018)
Read-outs that look alike come from different tables or passages of the source.

Columns and labels:
Assay in all cases: MTT cancer cell growth inhibition
Format in all cases: cell-based
[1] = tested on: MDA-MB-231 (breast cancer cells)
Outline: (§1)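 Cells grown in DMEM or RPMI 1640 with 10% FBS were seeded at 1500/well and left overnight at 37° C., 5% CO2. Compounds at final 10^−5 to 10^−10 M were added in triplicate for 72 h. MTT was then added for 4 h, formazan dissolved in DMSO, and absorbance read at 570 nm to derive GI50.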

[2] = tested on: Hela (human cervical cancer cells); details: MTT
Outline: as §1

[3] = tested on: PANC-1 (Pac-1, human pancreatic cancer cells); details: MTT
Outline: as §1

[4] = tested on: Huh-7 (human hepatoma cells); details: MTT, 72 hours incubation, Huh-7 cells, read-out: GI50 Huh-7
Outline: as §1

[5] = tested on: DU145 (human prostate cancer cells); details: MTT
Outline: as §1

[6] = tested on: U937 (human leukemia cells); details: MTT
Outline: as §1

[7] = tested on: BGC-823 (human gastric cancer cells); details: MTT
Outline: as §1

[8] = tested on: KBM-5 (human chronic myelogenous leukemia); details: MTT, 72 hours incubation, KBM-5 cells, read-out: GI50 KBM-5
Outline: as §1

[9] = tested on: K562 (human leukemia cells); details: MTT, 72 hours incubation, K562 cells, read-out: GI50 K562
Outline: as §1

[10] = tested on: lncap (prostate cancer cells); details: MTT
Outline: as §1

[11] = tested on: Bel-7402 (human hepatoma cells); details: MTT, 72 hours incubation, Bel-7402 cells, read-out: GI50 Bel-7402
Outline: as §1

[12] = tested on: SGC-7901 (human gastric cancer cells); details: MTT, 72 hours incubation, SGC-7901 cells, read-out: GI50 SGC-7901
Outline: as §1

[13] = tested on: N-87 (human gastric cancer cells); details: MTT, 72 hours incubation, N-87 cells, read-out: GI50 N-87
Outline: as §1

[14] = tested on: HT1080 (human fibrosarcoma cells); details: MTT
Outline: as §1

[15] = tested on: HCC827 (human non-small cell lung cancer cells); details: MTT, 72 hours incubation, HCC827 cells, read-out: GI50 HCC827
Outline: as §1

[16] = Homo sapiens, MDA-MB-231, 72 h, read-out: GI50 MDA-MB-231, MTT, 72 hours incubation, MDA-MB-231 cells
[17] = Homo sapiens, HeLa, 72 h, Hela cells, 72 hours incubation, read-out: GI50 Hela
[18] = Homo sapiens, HeLa, 72 h, 72 hours, present invention, read-out: GI50 Hela, a
[19] = Homo sapiens, PANC-1, 72 h, 72 hours, present invention, read-out: GI50 PANC-1, a
[20] = Homo sapiens, PANC-1, 72 h, PANC-1 cells, 72 hours incubation, read-out: GI50 PAN
[21] = Homo sapiens, DU-145, 72 h, DU145 cells, 72 hours incubation, read-out: GI50 Du1
[22] = Homo sapiens, DU-145, 72 h, 72 hours, present invention, read-out: GI50 Du145, a
[23] = Homo sapiens, U-937, 72 h, 72 hours, present invention, read-out: GI50 U937, a
[24] = Homo sapiens, U-937, 72 h, U937 cells, 72 hours incubation, read-out: GI50 U93
[25] = Homo sapiens, BGC-823, 72 h, BGC-823 cells, 72 hours incubation, read-out: GI50 BG
[26] = Homo sapiens, BGC-823, 72 h, 72 hours, present invention, read-out: GI50 BGC823, a
[27] = Homo sapiens, LNCaP, 72 h, 72 hours, present invention, read-out: GI50 lncap, a
[28] = Homo sapiens, LNCaP, 72 h, lncap cells, 72 hours incubation, read-out: GI50 lnca
[29] = Homo sapiens, HT-1080, 72 h, HT1080 cells, 72 hours incubation, read-out: GI50 HT1
[30] = Homo sapiens, HT-1080, 72 h, 72 hours, present invention, read-out: GI50 HT1080, a
[31] = read-out: GI50 MDA-MB-231, MTT, 72 hours incubation, MDA-MB-231 cells
[32] = Homo sapiens, HeLa, 72 h, 72 hours incubation, read-out: GI50 Hela
[33] = Homo sapiens, PANC-1, 72 h, 72 hours incubation, read-out: GI50 PAN
[34] = Homo sapiens, DU-145, 72 h, 72 hours incubation, read-out: GI50 Du1
[35] = Homo sapiens, U-937, 72 h, 72 hours incubation, read-out: GI50 U93
[36] = Homo sapiens, LNCaP, 72 h, 72 hours incubation, read-out: GI50 lnca
[37] = Homo sapiens, HT-1080, 72 h, 72 hours incubation, read-out: GI50 HT1

Row | Compound | GI50 [1, 16] [nM] | GI50 [2, 17] [nM] | GI50 [2, 18] [nM] | GI50 [3, 19] [nM] | GI50 [3, 20] [nM] | GI50 ([4]; Homo sapiens, Huh-7, 72 h) [nM] | GI50 [5, 21] [nM] | GI50 [5, 22] [nM] | GI50 [6, 23] [nM] | GI50 [6, 24] [nM] | GI50 [7, 25] [nM] | GI50 [7, 26] [nM] | GI50 ([8]; Homo sapiens, KBM5, 72 h) [nM] | GI50 ([9]; Homo sapiens, K562, 72 h) [nM] | GI50 [10, 28] [nM] | GI50 ([11]; Homo sapiens, Bel-7402, 72 h) [nM] | GI50 ([12]; Homo sapiens, SGC-7901, 72 h) [nM] | GI50 ([13]; Homo sapiens, 72 h) [nM] | GI50 [14, 29] [nM] | GI50 ([15]; Homo sapiens, HCC827, 72 h) [nM] | other results
1 | CCCCCCCC(=O)SCC/C=C/[C@@H]1CC(=O)NCc2cccc(n2)C(=O)NCC(=O)N[C@@H](C(C)C)C(=O)O1 [Compound 246] | 47 | 10 | 13 | 870 | 870 | 21 | 20 | 20 | 110 | 110 | 1020 | 1020 | 56 | 12 | 130 | 38 | 32 | 41 | 10 | 53 | GI50 [10, 27]: 130 nM; GI50 [14, 30]: 17 nM
2 | C/C=C1\NC(=O)c2nc(ccc2F)CNC(=O)C[C@@H](/C=C/CCSC(C)=O)OC(=O)[C@H](C(C)C)NC1=O [Example 48] | – | – | – | – | – | – | – | – | – | – | – | – | – | – | – | – | – | – | – | – | GI50 [1, 31]: 35 nM; GI50 [2, 32]: 70 nM; GI50 [3, 33]: 40 nM; GI50 [4]: 35 nM; GI50 [5, 34]: 20 nM; GI50 [6, 35]: 20 nM; GI50 ([7]; 72 hours incubation, read-out: GI50 BG): 80 nM; GI50 [8]: 76 nM; GI50 [9]: 28 nM; GI50 [10, 36]: 30 nM; GI50 [11]: 42 nM; GI50 [12]: 69 nM; GI50 [13]: 81 nM; GI50 [14, 37]: 40 nM; GI50 [15]: 42 nM
3 | C/C=C1\NC(=O)c2cc(SC)cc(n2)CNC(=O)C[C@@H](/C=C/CCSC(=O)CCCCCC)OC(=O)[C@H](C(C)C)NC1=O [Compound 151] | 37 | 70 | – | – | 40 | 35 | 40 | – | – | 40 | 40 | – | 31 | 67 | 70 | 26 | 36 | 46 | 90 | 38 | –
4 | CCCCCCCC(=O)SCC/C=C/[C@@H]1CC(=O)NCc2cccc(n2)C(=O)NC(CC)C(=O)N[C@@H](C(C)C)C(=O)O1 (stereo partly drawn) [Compound 245] | 65 | 530 | 530 | 140 | 140 | 31 | 130 | 130 | 840 | 840 | 770 | 770 | 11 | 83 | 860 | 87 | 63 | 53 | 650 | 96 | GI50 [10, 27]: 860 nM; GI50 [14, 30]: 650 nM
5 | C/C=C1\NC(=O)c2cc(SCCC)cc(n2)CNC(=O)C[C@@H](/C=C/CCSC(=O)CCCCCCC)OC(=O)[C@H](CC)NC1=O [Compound 175] | 29 | 10 | – | – | 50 | 27 | 30 | – | – | 40 | 20 | – | 42 | 39 | 80 | 105 | 62 | 49 | 50 | 13 | –
6 | C/C=C1\NC(=O)c2cccc(n2)CNC(=O)C[C@@H](/C=C/CCSC(=O)CCCCCCC)OC(=O)[C@H](C(C)(C)C)NC1=O [Compound 237] | 12 | 880 | 880 | 930 | 930 | 49 | 40 | 40 | 110 | 110 | 170 | 170 | 49 | 69 | 940 | 42 | 33 | 58 | 990 | 25 | GI50 [10, 27]: 940 nM; GI50 [14, 30]: 990 nM
7 | C/C=C1\NC(=O)c2cc(F)cc(n2)CNC(=O)C[C@@H](/C=C/CCSC(C)=O)OC(=O)[C@H](CC)NC1=O [Compound 58] | 39 | – | – | – | – | 39 | – | – | – | – | – | – | 69 | 26 | – | 49 | 51 | 61 | – | 49 | GI50 [2, 32]: 60 nM; GI50 [3, 33]: 40 nM; GI50 [5, 34]: 20 nM; GI50 [6, 35]: 60 nM; GI50 ([7]; Homo sapiens, BGC-823, 72 h, 72 hours incubation, read-out: GI50 BG): 60 nM; GI50 [10, 36]: 30 nM; GI50 [14, 37]: 40 nM
8 | C=C1NC(=O)c2cc(SC)cc(n2)CNC(=O)C[C@@H](/C=C/CCSC(C)=O)OC(=O)[C@H](C(C)C)NC1=O [Compound 205] | 39 | 70 | – | – | 30 | 47 | 60 | – | – | 40 | 50 | – | 15 | 53 | 60 | 56 | 59 | 49 | 10 | 62 | –
9 | C/C=C1\NC(=O)c2ncc(SC)c(n2)CNC(=O)C[C@@H](/C=C/CCSC(C)=O)OC(=O)[C@H](C(C)C)NC1=O [Compound 217] | – | – | – | – | – | – | – | – | – | – | – | – | – | – | – | – | – | – | – | – | GI50 [1, 31]: 19 nM; GI50 ([2]; Hela cells, 72 hours incubation, read-out: GI50 Hela): 10 nM; GI50 ([3]; PANC-1 cells, 72 hours incubation, read-out: GI50 PAN): 70 nM; GI50 [4]: 19 nM; GI50 ([5]; DU145 cells, 72 hours incubation, read-out: GI50 Du1): 20 nM; GI50 ([6]; U937 cells, 72 hours incubation, read-out: GI50 U93): 90 nM; GI50 ([7]; BGC-823 cells, 72 hours incubation, read-out: GI50 BG): 30 nM; GI50 [8]: 41 nM; GI50 [9]: 62 nM; GI50 ([10]; lncap cells, 72 hours incubation, read-out: GI50 lnca): 30 nM; GI50 [11]: 37 nM; GI50 [12]: 28 nM; GI50 [13]: 57 nM; GI50 ([14]; HT1080 cells, 72 hours incubation, read-out: GI50 HT1): 20 nM; GI50 [15]: 29 nM
10 | C/C=C1\NC(=O)c2nc(ccc2SC)CNC(=O)C[C@@H](/C=C/CCSC(=O)CCCCC)OC(=O)[C@H](C(C)C)NC1=O [Compound 153] | 57 | 50 | – | – | 20 | 75 | 60 | – | – | 30 | 20 | – | 28 | 32 | 50 | 96 | 83 | 28 | 80 | 28 | –
